Counter-ions that a name gives are not always drawn.

Broadly, the EC50 is the concentration that produces a half-maximal response.

The test addresses T1, human GPR119 (Homo sapiens, UniProt Q8TDV5).
T1 construct: expressed in transfected cells; host or cells: Flp-In-T-REx 293 cells, tetracycline-induced
T1 sequence (Q8TDV5 1-335): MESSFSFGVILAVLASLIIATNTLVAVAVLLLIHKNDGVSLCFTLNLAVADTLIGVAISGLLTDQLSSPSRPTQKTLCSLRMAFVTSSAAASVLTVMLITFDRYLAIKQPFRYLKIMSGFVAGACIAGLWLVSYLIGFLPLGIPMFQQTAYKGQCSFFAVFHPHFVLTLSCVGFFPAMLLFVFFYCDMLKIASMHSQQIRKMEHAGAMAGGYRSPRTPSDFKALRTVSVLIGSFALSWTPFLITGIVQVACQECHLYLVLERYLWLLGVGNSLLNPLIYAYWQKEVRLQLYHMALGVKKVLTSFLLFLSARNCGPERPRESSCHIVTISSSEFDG
The test can be described thus: Human Tet-inducible cAMP assay. The test is classed as cell-based. Conditions: Flp-In-T-REx 293 tetracycline inducible cells expressing GPR119; Hit Hunter cAMP kit; 1 hour at 37° C.; read-out: hGPR119 EC50. The procedure:
The in vitro modulation of recombinant human GPR119 was determined as follows.
Human Tet-inducible cAMP Assay
Cell lines expressing GPR119 are generated using the Flp-In-T-REx 293 tetracycline inducible gene expression system are cultured in culture medium comprising the following components: DMFM#11965, 10% FBS, 2 mM L-glutamine, 200 ug/ml Hygromycin B, and 15 ug/ml blasticidin.
For cAMP assays, cells are plated on 96 well plates (e.g., BD Falcon: REF 353948, black side, clear bottom, TC surface) at a density of about 4.5×10^4 cells per well in growth medium containing 1.0 ug/ml tetracycline (1.0 mg/ml stock). The cells are then incubated for 48 hours at 37° C.
Following the incubation, the growth medium is removed from the wells and the wells rinsed (once) with the assay buffer included in the Hit Hunter cAMP kit (100 μl/well). Following the wash, 20 μl of assay buffer is added to each well, followed by addition of 10 μl of a 3× concentration compound working solution. The solution is then mixed. The final concentration range of compound is from about 10^−5M to about 10^−11M. The reagents are then incubated at 37° C. at 5% CO2 for 1 hour.
The manufacturer's protocol may be followed for cAMP determination. The Hit Hunter cAMP kit protocol is outlined for the HIT-T15 cAMP assays described above.
Compounds of the present invention were tested in the Human Tet-inducible cAMP assay described immediately above and the results shown in Table 4 below were obtained.
Background: cAMP levels reflect the balance of adenylyl cyclase and phosphodiesterase activity.
As for `CCCc1cnc(N2CCC(Oc3ccn(-c4ccc(-n5cncn5)cc4)c(=O)c3)CC2)nc1` [Example 1, 1-(4-(1H-1,2,4-triazol-1-yl)phenyl)-4-(1-(5-propylpyrimidin-2-yl)piperidin-4-yloxy)pyridin-2(1H)-one, hydrochloride salt], the EC50 came to 0.087 µM.

As for `CCCc1cnc(N2CCC(Oc3ccn(-c4ccc(-n5ccnc5)cc4)c(=O)c3)CC2)nc1` [Example 2, 1-(4-(1H-imidazol-1-yl)phenyl)-4-(1-(5-propylpyrimidin-2-yl)piperidin-4-yloxy)pyridin-2(1H)-one, hydrochloride salt], the EC50 turned out to be 0.094 µM.

As for `CCCc1cnc(N2CCC(Oc3ccn(-c4ccc(-c5ncco5)cc4)c(=O)c3)CC2)nc1` [Example 3, 1-(4-(oxazol-2-yl)phenyl)-4-(1-(5-propylpyrimidin-2-yl)piperidin-4-yloxy)pyridin-2(1H)-one], the EC50 amounted to 0.204 µM.

For the compound `CC(C)OC(=O)N1CCC(Oc2ccn(-c3ccc(-n4cncn4)cc3)c(=O)c2)CC1` [Example 4, isopropyl 4-(1-(4-(1H-1,2,4-triazol-1-yl)phenyl)-2-oxo-1,2-dihydropyridin-4-yloxy)piperidine-1-carboxylate], the EC50 was found to be 5.19 µM.

The record behind these values is patent publication US7928230B2, “Method for modulating GPR119 G protein-coupled receptor and selected compounds” (Bristol-Myers Squibb Company, priority 2007, dated 2011).
